Measured values published in patent publication US20200147116A1, “Use of Paeoniflorin-6'-O-benzenesulfonate in treatment of Sjögren's syndrome” (NINGBO ZHIMING BIOTECHNOLOGY CO., LTD., priority 2017, published 2020).
Marks after values point to notes of the source that are not given here.

Tests used:
Type in all cases: in vivo
SS mice = test: Organic indexes (spleen, submaxillary gland, thymus) in SS mice
Excerpt: 2 Sjögren's syndrome model mice: C57BL/6 female mice housed in a SPF environment with successful modeling (The animal model was made via repeated multi-point intracutaneous injection of submaxillary gland homogenate of homologous mice to tail and back of mice). The animal model was made via repeated multi-point intracutaneously injection of submaxillary gland homogenate of homologous mice to tail and back of mice, and the mice with successful modeling were randomly assigned to each group according to comprehensive conditions of mice. At the same time, the average weight and status of each group of mice should be as close as possible. Paeoniflorin-6′-O-benzenesulfonate, white crystalline powder, purity 98.5%, was dissolved in trace ethanol (75 mg of CP-25 was soluble in 40 μl of ethanol), and then sodium carboxymethylcellulose was added to formulate a suspension of CP-25. Corresponding dose gradient, low dose (17.5 mg/kg), medium dose (35 mg/kg) and high dose (70 mg/kg) of said pharmaceutical should be prepared before medication, stored in 4° C. refrigerator for use. High dose of said pharmaceutical should be incubated for half an hour before use.

[1] = system: submaxillary gland in SS mice; test: Histopathological examination and grading of submaxillary gland in SS mice (H&E, Chisholm-Mason scale); details: for Score: mice with submaxillary gland pathology Grade 0 / Score: mice with submaxillary gland pathology Grade I / Score: mice with submaxillary gland pathology Grade II / Score: mice with submaxillary gland pathology Grade III / Score: mice with submaxillary gland pathology Grade IV: two weeks of administration, four mice of each group
Method: (§1) Mice were sacrificed after two weeks of administration, and then submaxillary glands of four mice of each group were removed and pathologically observed. At first, the submaxillary gland should be fixed in 10% buffered formalin for 24 h, followed by washing, dehydration and clearing, wax-filling, embedding, sectioning and finally H&E staining. […] Results were graded pathologically.
(§2) Note: The histological findings graded of submaxillary glands according to the Chisholm-Mason scale; grade 0, absence of lymphocytic infiltration; grade I, slight lymphocytic infiltration; grade II, moderate lymphocytic infiltration; grade III, one focus of lymphocytic infiltration per 4 mm^2 tissue; grade IV, more than one focus of lymphocytic infiltration per 4 mm^2 tissue (Note: One focus of lymphocytic infiltration has been defined as an aggregate of 50 or more lymphocytes gathered in the labial gland stroma per 4 mm^2 of tissue.

[2] = system: spleen CD4+ IL-17A+ T lymphocytes; test: Spleen CD4+ IL-17A+ T lymphocytes in SS model mice (FIG. 4)
Excerpt: FIG. 4 Effects of CP-25 on spleen CD4^+ IL-17A^+ T lymphocytes in SS model mice.

[3] = system: spleen CD4+ CD25+FOXP3+ T lymphocytes; test: Spleen CD4+ CD25+ FOXP3+ T lymphocytes in SS model mice (FIG. 5, 6); details: FIG. 6
Excerpt: FIG. 5 Effects of CP-25 on spleen CD4^+ CD25^+FOXP3^+ T lymphocytes in SS model mice.
FIG. 6 Effects of CP-25 on spleen CD4^+ CD25^+FOXP3^+ T lymphocytes in SS model mice.

[4] = system: spleen CD19+ CD27+ B lymphocytes; test: Spleen CD19+ CD27+ B lymphocytes in SS model mice (FIG. 7)
Excerpt: FIG. 7 Effects of CP-25 on spleen CD19^+ CD27^+ B lymphocytes in SS model mice.

spleen CD11c+ CD80+ DC = test: Spleen CD11c+ CD80+ DC in SS model mice (FIG. 8)
Excerpt: FIG. 8 Effects of CP-25 on spleen CD11c^+ CD80^+ DC in SS model mice.

NOD mice = test: Saliva amount in NOD mice; details: for Saliva amount in NOD mice, Pre-administration: baseline before administration
Method: Before measurement, mice were anesthetized via intraperitoneal injection of 0.05 ml of 2.4% pentobarbital sodium, and the satisfactory anesthesia was smooth breathing, corneal reflex disappearance and limb muscle relaxation. After complete anesthesia, a mouse was placed in slightly tilted trendelenburg position, and its body was kept warm using the heater. The mouse was injected intraperitoneally with 0.1 ml of 0.025 mg/ml Pilocarpine, and 5 min later, a weighed cotton ball was placed in the mouth of the mouse for 10 min. After taking the ball out, the saliva weight of mice was measured by the wet weight method.
Therapeutic effects of on Sjögren's syndrome CP-25 in NOD mice.

NOD model mice = test: Organic indexes (spleen, submaxillary gland, thymus) in NOD model mice
[5] = system: submaxillary glands in NOD mice; test: Pathological grading of submaxillary glands in NOD mice; details: for Score: mice with submaxillary gland pathology Grade 0 / Score: mice with submaxillary gland pathology Grade I / Score: mice with submaxillary gland pathology Grade II / Score: mice with submaxillary gland pathology Grade III / Score: mice with submaxillary gland pathology Grade IV: NOD mice
Method: as §1, §2

[6] = system: spleen CD4+ IL-17A+ T lymphocytes; test: Spleen CD4+ IL-17A+ T lymphocytes in NOD model mice (FIG. 13)
Excerpt: FIG. 13 Effects of CP-25 on spleen CD4^+ IL-17A^+ T lymphocytes in NOD model mice.

[7] = system: spleen CD4+ CD25+ FOXP3+ T lymphocytes; test: Spleen CD4+ CD25+ FOXP3+ T lymphocytes in NOD model mice (FIG. 14)
Excerpt: FIG. 14 Effects of CP-25 on spleen CD4^+ CD25^+ FOXP3^+ T lymphocytes in NOD model mice.

C[C@@]12C[C@@]3(O)O[C@H](O1)C1(COC(=O)c4ccccc4)[C@@H]3CC12OC1OC(COS(=O)(=O)c2ccccc2)C(O)C(O)C1O (stereo partly shown) [CP-25, Paeoniflorin-6′-O-benzenesulfonate]
Spleen index (SS mice; 17.5 mg/kg): 9.00 ± 1.61 mg/g
Submaxillary gland index (SS mice; 17.5 mg/kg): 3.56 ± 0.62 mg/g
Thymus index (SS mice; 17.5 mg/kg): 1.06 ± 0.31 mg/g
Spleen index (SS mice; 35 mg/kg): 8.92 ± 1.33 mg/g
Submaxillary gland index (SS mice; 35 mg/kg): 3.32 ± 0.66 mg/g
Thymus index (SS mice; 35 mg/kg): 1.31 ± 0.42 mg/g
Spleen index (SS mice; 70 mg/kg): 8.51 ± 1.42 mg/g
Submaxillary gland index (SS mice; 70 mg/kg): 3.24 ± 0.57 mg/g
Thymus index (SS mice; 70 mg/kg): 1.03 ± 0.44 mg/g
Increasing of submaxillary gland index (in words) (SS mice; Example 2): significantly suppress the increasing
Score: mice with submaxillary gland pathology Grade 0 ([1]; 17.5 mg/kg): 0
Score: mice with submaxillary gland pathology Grade I ([1]; 17.5 mg/kg): 0
Score: mice with submaxillary gland pathology Grade II ([1]; 17.5 mg/kg): 0
Score: mice with submaxillary gland pathology Grade III ([1]; 17.5 mg/kg): 1
Score: mice with submaxillary gland pathology Grade IV ([1]; 17.5 mg/kg): 3
Score: mice with submaxillary gland pathology Grade 0 ([1]; 35 mg/kg): 0
Score: mice with submaxillary gland pathology Grade I ([1]; 35 mg/kg): 0
Score: mice with submaxillary gland pathology Grade II ([1]; 35 mg/kg): 0
Score: mice with submaxillary gland pathology Grade III ([1]; 35 mg/kg): 1
Score: mice with submaxillary gland pathology Grade IV ([1]; 35 mg/kg): 3
Score: mice with submaxillary gland pathology Grade 0 ([1]; 70 mg/kg): 0
Score: mice with submaxillary gland pathology Grade I ([1]; 70 mg/kg): 0
Score: mice with submaxillary gland pathology Grade II ([1]; 70 mg/kg): 0
Score: mice with submaxillary gland pathology Grade III ([1]; 70 mg/kg): 3
Score: mice with submaxillary gland pathology Grade IV ([1]; 70 mg/kg): 1^#
Pathological changes in submaxillary gland ([1]; Example 3, dose not given): apparently ameliorate the pathological changes
Pathological changes in submaxillary glands (H&E staining score, rank-sum test) ([1]; high dose of CP-25): apparently ameliorate the pathological changes
Ratio of CD4+ IL-17A+ Th17 lymphocytes [2]: significantly inhibit
Ratio of CD4+ CD25+FOXP3+ Treg lymphocytes [3]: increase
Ratio of spleen CD19+ CD27+ B lymphocytes [4]: significantly increase
Expression of surface molecular CD80+ on spleen CD11c+ DC (spleen CD11c+ CD80+ DC): significantly inhibit
Saliva amount in NOD mice, One week after administration (NOD mice; 17.5 mg/kg): 15.20 ± 1.04 mg/each mouse/10 min
Saliva amount in NOD mice, Two weeks after administration (NOD mice; 17.5 mg/kg): 14.25 ± 1.46 mg/each mouse/10 min
Saliva amount in NOD mice, One week after administration (NOD mice; 35 mg/kg): 15.60 ± 1.50 mg/each mouse/10 min
Saliva amount in NOD mice, Two weeks after administration (NOD mice; 35 mg/kg): 15.25 ± 1.36 mg/each mouse/10 min
Saliva amount in NOD mice, One week after administration (NOD mice; 70 mg/kg): 18.20 ± 1.58^#Δ mg/each mouse/10 min
Saliva amount in NOD mice, Two weeks after administration (NOD mice; 70 mg/kg): 18.25 ± 1.50 mg/each mouse/10 min
Saliva amount in NOD mice, Pre-administration (NOD mice; dose group 17.5 mg/kg): 19.50 ± 1.38 mg/each mouse/10 min
Saliva amount in NOD mice, Pre-administration (NOD mice; dose group 35 mg/kg): 19.33 ± 3.20 mg/each mouse/10 min
Saliva amount in NOD mice, Pre-administration (NOD mice; dose group 70 mg/kg): 19.51 ± 1.87 mg/each mouse/10 min
Saliva amount (in words) (NOD mice; NOD model mice, Example 4): significantly increase
Onset time of curative effects versus comparators (NOD mice; NOD model mice, Example 4, saliva amount): earlier than that of TGP, or Pae
Spleen index (NOD model mice; 17.5 mg/kg): 9.5 ± 4.2 mg/g
Submaxillary gland index (NOD model mice; 17.5 mg/kg): 4.5 ± 0.8^ mg/g
Thymus index (NOD model mice; 17.5 mg/kg): 1.3 ± 0.7 mg/g
Spleen index (NOD model mice; 35 mg/kg): 4.2 ± 0.6 mg/g
Submaxillary gland index (NOD model mice; 35 mg/kg): 4.3 ± 0.6 mg/g
Thymus index (NOD model mice; 35 mg/kg): 1.1 ± 0.6 mg/g
Spleen index (NOD model mice; 70 mg/kg): 4.3 ± 0.7 mg/g
Submaxillary gland index (NOD model mice; 70 mg/kg): 4.2 ± 0.6 mg/g
Thymus index (NOD model mice; 70 mg/kg): 1.4 ± 0.5 mg/g
Increasing of submaxillary gland index (in words) (NOD model mice; Example 5): significantly suppress the increasing
Score: mice with submaxillary gland pathology Grade 0 ([5]; 17.5 mg/kg): 0
Score: mice with submaxillary gland pathology Grade I ([5]; 17.5 mg/kg): 0
Score: mice with submaxillary gland pathology Grade II ([5]; 17.5 mg/kg): 0
Score: mice with submaxillary gland pathology Grade III ([5]; 17.5 mg/kg): 1
Score: mice with submaxillary gland pathology Grade IV ([5]; 17.5 mg/kg): 3
Score: mice with submaxillary gland pathology Grade 0 ([5]; 35 mg/kg): 0
Score: mice with submaxillary gland pathology Grade I ([5]; 35 mg/kg): 0
Score: mice with submaxillary gland pathology Grade II ([5]; 35 mg/kg): 0
Score: mice with submaxillary gland pathology Grade III ([5]; 35 mg/kg): 1
Score: mice with submaxillary gland pathology Grade IV ([5]; 35 mg/kg): 3
Score: mice with submaxillary gland pathology Grade 0 ([5]; 70 mg/kg): 0
Score: mice with submaxillary gland pathology Grade I ([5]; 70 mg/kg): 0
Score: mice with submaxillary gland pathology Grade II ([5]; 70 mg/kg): 0
Score: mice with submaxillary gland pathology Grade III ([5]; 70 mg/kg): 3
Score: mice with submaxillary gland pathology Grade IV ([5]; 70 mg/kg): 1 ^#
Pathological changes in submaxillary gland ([5]; NOD model mice, Example 6): apparently ameliorate the pathological changes
Ratio of spleen CD4+ IL-17A+ Th17 lymphocytes [6]: significantly inhibit
Ratio of spleen CD4+ CD25+FOXP3+ Treg lymphocytes [7]: significantly improve
